We go through 32 compounds from patent US8143408B2, “N-(8-heteroaryltetrahydronaphtalene-2yl) or N-(5-heteroarylchromane-3-yl) carboxamide derivatives for the treatment of pain” (AstraZeneca AB, priority 2007, dated 2012).

This assay has as its target T1, Nav1.7 voltage-gated sodium channel (Homo sapiens, UniProt Q15858).
T1 construct: Gene(s) encoding the full-length protein of the voltage-gated sodium channel of interest are cloned and expressed; expressed in transfected cells
As to the kind of experiment: Whole-cell voltage clamp electrophysiology assay. It is filed as cell-based. The following applies: cells stably expressing the voltage-gated sodium channel of interest. From the text: Gene(s) encoding the full-length protein of the voltage-gated sodium channel of interest are cloned and expressed under a suitable promoter in a suitable cell line, as well known in the art. […] Suitable screening assays are as follows.
Electrophysiological studies can be performed using automated patch-clamp electrophysiology platforms, like IonWorks HT, IonWorks Quattro, PatchXpress, QPatch or any other suitable platform. […] Suitable extracellular and intracellular buffer for such experiments are applied according to the instructions given by the manufacturer of the automated patch-clamp platforms. Cells that express the voltage-gated sodium channel protein of interest are exposed to drugs through the pipetting system integrated in the platforms. A suitable voltage stimulus protocol is used to activate the voltage-gated sodium channel proteins of interest through depolarisation from a defined holding potential.
Electrophysiological studies can also be performed using the whole cell configuration of the standard patch clamp technique. In this assay, cells that express the voltage-gated sodium channel protein of interest are exposed to the drugs by conventional microperfusion systems and a suitable voltage stimulus protocol is used to activate the voltage-gated sodium channels.

T1 sequence (Q15858 whole entry): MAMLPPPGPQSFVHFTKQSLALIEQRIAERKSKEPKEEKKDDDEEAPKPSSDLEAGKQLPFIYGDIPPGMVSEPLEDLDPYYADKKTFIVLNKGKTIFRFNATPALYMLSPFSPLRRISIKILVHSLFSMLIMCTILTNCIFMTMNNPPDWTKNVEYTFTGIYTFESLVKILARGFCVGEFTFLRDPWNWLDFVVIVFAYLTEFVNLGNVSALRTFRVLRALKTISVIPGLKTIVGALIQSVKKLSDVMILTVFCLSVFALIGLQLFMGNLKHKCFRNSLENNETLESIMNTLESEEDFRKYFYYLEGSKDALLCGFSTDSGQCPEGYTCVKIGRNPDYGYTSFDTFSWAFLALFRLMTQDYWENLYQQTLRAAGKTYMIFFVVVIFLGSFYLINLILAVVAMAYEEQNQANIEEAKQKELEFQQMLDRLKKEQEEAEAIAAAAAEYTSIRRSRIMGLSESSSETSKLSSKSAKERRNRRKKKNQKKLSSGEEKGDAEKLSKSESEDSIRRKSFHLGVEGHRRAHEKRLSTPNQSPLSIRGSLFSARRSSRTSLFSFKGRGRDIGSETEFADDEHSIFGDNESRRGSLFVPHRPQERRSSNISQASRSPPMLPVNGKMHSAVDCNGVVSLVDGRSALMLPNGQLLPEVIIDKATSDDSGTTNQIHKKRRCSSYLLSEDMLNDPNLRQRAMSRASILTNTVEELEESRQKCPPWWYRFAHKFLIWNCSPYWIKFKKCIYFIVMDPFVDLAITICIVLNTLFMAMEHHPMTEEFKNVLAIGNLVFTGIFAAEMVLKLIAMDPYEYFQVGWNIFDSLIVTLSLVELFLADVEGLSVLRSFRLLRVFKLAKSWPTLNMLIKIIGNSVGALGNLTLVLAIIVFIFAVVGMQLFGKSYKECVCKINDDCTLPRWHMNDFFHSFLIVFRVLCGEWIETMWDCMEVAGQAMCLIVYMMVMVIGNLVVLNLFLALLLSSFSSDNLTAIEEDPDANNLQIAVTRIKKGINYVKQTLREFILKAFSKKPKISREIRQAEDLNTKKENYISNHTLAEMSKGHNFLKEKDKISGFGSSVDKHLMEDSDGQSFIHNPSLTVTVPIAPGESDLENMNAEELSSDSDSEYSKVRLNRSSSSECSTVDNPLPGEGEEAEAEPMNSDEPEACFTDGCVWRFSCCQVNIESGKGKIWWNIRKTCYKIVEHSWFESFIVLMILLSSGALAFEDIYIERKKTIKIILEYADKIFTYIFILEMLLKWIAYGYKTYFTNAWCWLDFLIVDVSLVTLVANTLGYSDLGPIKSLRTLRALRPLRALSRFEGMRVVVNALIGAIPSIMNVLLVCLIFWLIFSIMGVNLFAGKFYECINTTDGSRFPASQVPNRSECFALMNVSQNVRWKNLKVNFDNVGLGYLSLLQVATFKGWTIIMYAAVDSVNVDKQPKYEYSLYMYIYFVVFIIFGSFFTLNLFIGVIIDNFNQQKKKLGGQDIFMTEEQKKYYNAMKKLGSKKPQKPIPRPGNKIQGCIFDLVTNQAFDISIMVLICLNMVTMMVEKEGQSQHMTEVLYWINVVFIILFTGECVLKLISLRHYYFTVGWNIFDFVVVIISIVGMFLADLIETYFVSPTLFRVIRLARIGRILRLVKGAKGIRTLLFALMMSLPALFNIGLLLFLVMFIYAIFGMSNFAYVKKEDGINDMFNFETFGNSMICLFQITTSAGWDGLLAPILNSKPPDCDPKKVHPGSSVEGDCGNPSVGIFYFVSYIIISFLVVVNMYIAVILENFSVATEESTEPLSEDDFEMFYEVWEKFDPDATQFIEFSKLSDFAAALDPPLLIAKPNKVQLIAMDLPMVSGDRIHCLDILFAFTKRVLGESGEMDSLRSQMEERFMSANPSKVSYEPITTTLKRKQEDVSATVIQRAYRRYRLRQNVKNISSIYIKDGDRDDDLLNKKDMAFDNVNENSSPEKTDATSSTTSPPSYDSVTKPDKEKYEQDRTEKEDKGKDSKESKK

As for `O=C(N[C@@H]1CCc2cccc(-c3ccnnc3)c2C1)c1ccc(OCCC(F)(F)F)nc1` [Example 75, N-[(2R)-8-pyridazin-4-yl-1,2,3,4-tetrahydronaphthalen-2-yl]-6-(3,3,3-trifluoropropoxy)nicotinamide], the IC50 (in general, the concentration that gives 50% inhibition) is 631 nM.

For the compound `COc1ccc(-c2cccc3c2C[C@H](NC(=O)c2ccc(OC(C)C)nc2)CO3)cn1` [Example 76, 6-isopropoxy-N-[(3S)-5-(6-methoxypyridin-3-yl)-3,4-dihydro-2H-chromen-3-yl]nicotinamide], the midpoint of inhibition, the IC50, lay at 398 nM.

Regarding `COc1ccc(-c2cccc3c2C[C@H](NC(=O)c2ccc(OCCC(F)(F)F)nc2)CO3)cn1` [Example 77, N-[(3S)-5-(6-methoxypyridin-3-yl)-3,4-dihydro-2H-chromen-3-yl]-6-(3,3,3-trifluoropropoxy)nicotinamide], half-maximal inhibition (IC50) was put at 126 nM.

`CC(C)Oc1ccc(C(=O)N[C@@H]2CCc3cccc(-c4ccnnc4)c3C2)cn1` [Example 78, 6-isopropoxy-N-[(2R)-8-pyridazin-4-yl-1,2,3,4-tetrahydronaphthalen-2-yl]nicotinamide]: the IC50 is 3160 nM.

The compound `COc1cnc(C(=O)N[C@@H]2COc3cccc(-c4cnc(OC)c(F)c4)c3C2)cn1` [Example 79, N-[(3S)-5-(5-fluoro-6-methoxypyridin-3-yl)-3,4-dihydro-2H-chromen-3-yl]-5-methoxypyrazine-2-carboxamide] gave an IC50 of 1260 nM.

Turning to `O=C(N[C@@H]1COc2cccc(-c3ccnnc3)c2C1)c1ccc(OCC(F)(F)F)nc1` [Example 80, N-[(3S)-5-pyridazin-4-yl-3,4-dihydro-2H-chromen-3-yl]-6-(2,2,2-trifluoroethoxy)nicotinamide], the IC50 was 2510 nM.

`O=C(N[C@@H]1COc2cccc(-c3ccnnc3)c2C1)c1ccc(OCCC(F)(F)F)nc1` [Example 81, N-[(3S)-5-pyridazin-4-yl-3,4-dihydro-2H-chromen-3-yl]-6-(3,3,3-trifluoropropoxy)nicotinamide]: the IC50 was 398 nM.

For the compound `COc1ncc(-c2cccc3c2C[C@H](NC(=O)c2ccc(OC(C)C)nc2)CC3)cn1` [Example 82, 6-isopropoxy-N-[(2R)-8-(2-methoxypyrimidin-5-yl)-1,2,3,4-tetrahydronaphthalen-2-yl]nicotinamide], the IC50 is 2510 nM.

Turning to `COc1cnc(C(=O)N[C@@H]2COc3cccc(-c4cnc(OC)nc4)c3C2)cn1` [Example 83, 5-methoxy-N-[(3S)-5-(2-methoxypyrimidin-5-yl)-3,4-dihydro-2H-chromen-3-yl]pyrazine-2-carboxamide], the IC50 is 5010 nM.

The compound `COc1ncc(-c2cccc3c2C[C@H](NC(=O)c2ccc(OCCC(F)(F)F)nc2)CC3)cn1` [Example 84, N-[(2R)-8-(2-methoxypyrimidin-5-yl)-1,2,3,4-tetrahydronaphthalen-2-yl]-6-(3,3,3-trifluoropropoxy)nicotinamide] gave an IC50 of 398 nM.

The compound `COc1ncc(-c2cccc3c2C[C@H](NC(=O)c2ccc(OCC(F)(F)F)nc2)CC3)cn1` [Example 85, N-[(2R)-8-(2-methoxypyrimidin-5-yl)-1,2,3,4-tetrahydronaphthalen-2-yl]-6-(2,2,2-trifluoroethoxy)nicotinamide] showed an IC50 of 501 nM.

Consider `O=C(N[C@@H]1CCc2cccc(-c3cccnc3F)c2C1)c1ccc(OCC(F)(F)F)nc1` [Example 87, N-[(2R)-8-(2-fluoropyridin-3-yl)-1,2,3,4-tetrahydronaphthalen-2-yl]-6-(2,2,2-trifluoroethoxy)nicotinamide], for which the IC50 was 200 nM.

`COc1ncc(-c2cccc3c2C[C@H](NC(=O)c2ccc(OCC(F)(F)F)nc2)CO3)cc1F` [Example 88, N-[(3S)-5-(5-fluoro-6-methoxypyridin-3-yl)-3,4-dihydro-2H-chromen-3-yl]-6-(2,2,2-trifluoroethoxy)nicotinamide] had an IC50 of 398 nM.

`COc1ncc(-c2cccc3c2C[C@H](NC(=O)c2cnc(OCC(F)(F)F)nc2C)CO3)cn1` [Example 89, N-[(3S)-5-(2-methoxypyrimidin-5-yl)-3,4-dihydro-2H-chromen-3-yl]-4-methyl-2-(2,2,2-trifluoroethoxy)pyrimidine-5-carboxamide] showed an IC50 of 2000 nM.

The compound `COc1ncc(-c2cccc3c2C[C@H](NC(=O)c2cnc(OCC(F)(F)F)nc2C)CC3)cn1` [Example 90, N-[(2R)-8-(2-methoxypyrimidin-5-yl)-1,2,3,4-tetrahydronaphthalen-2-yl]-4-methyl-2-(2,2,2-trifluoroethoxy)pyrimidine-5-carboxamide] had an IC50 of 1580 nM.

The compound `O=C(N[C@@H]1COc2cccc(-c3ccc4nccn4c3)c2C1)c1ccc(OCC(F)(F)F)nc1` [Example 91, N-[(3S)-5-imidazo[1,2-a]pyridin-6-yl-3,4-dihydro-2H-chromen-3-yl]-6-(2,2,2-trifluoroethoxy)nicotinamide] showed an IC50 of 79.4 nM.

Compound `COc1ncc(-c2cccc3c2C[C@H](NC(=O)c2cnc(OC(C)C)nc2C)CO3)cn1` [Example 92, 2-isopropoxy-N-[(3S)-5-(2-methoxypyrimidin-5-yl)-3,4-dihydro-2H-chromen-3-yl]-4-methylpyrimidine-5-carboxamide] had a 50% inhibitory concentration (IC50) of 5010 nM.

With `CCOc1ncc(-c2cccc3c2C[C@H](NC(=O)c2ccc(OCC(F)(F)F)nc2)CO3)cn1` [Example 93, N-[(3S)-5-(2-ethoxypyrimidin-5-yl)-3,4-dihydro-2H-chromen-3-yl]-6-(2,2,2-trifluoroethoxy)nicotinamide], the IC50 was 631 nM.

`COc1ncc(-c2cccc3c2C[C@H](NC(=O)c2ccc(OC4CCC4)nc2)CO3)cc1F` [Example 94, 6-(cyclobutyloxy)-N-[(3S)-5-(5-fluoro-6-methoxypyridin-3-yl)-3,4-dihydro-2H-chromen-3-yl]nicotinamide] gave an IC50 of 794 nM.

Regarding `CCc1ncc(-c2cccc3c2C[C@H](NC(=O)c2ccc(OCC(F)(F)F)nc2)CO3)cn1` [Example 95, N-[(3S)-5-(2-ethylpyrimidin-5-yl)-3,4-dihydro-2H-chromen-3-yl]-6-(2,2,2-trifluoroethoxy)nicotinamide], the IC50 was 158 nM.

For the compound `O=C(N[C@@H]1COc2cccc(-c3cnc(C4CC4)nc3)c2C1)c1ccc(OCCCF)nc1` [Example 96, N-[(3S)-5-(2-cyclopropylpyrimidin-5-yl)-3,4-dihydro-2H-chromen-3-yl]-6-(3-fluoropropoxy)nicotinamide], inhibition was half-maximal at 50.1 nM (IC50).

`COc1ncc(-c2cccc3c2C[C@H](NC(=O)c2ccc(OCCC(F)(F)F)nc2)CO3)cc1F` [Example 97, N-[(3S)-5-(5-fluoro-6-methoxypyridin-3-yl)-3,4-dihydro-2H-chromen-3-yl]-6-(3,3,3-trifluoropropoxy)nicotinamide]: the IC50 is 398 nM.

Turning to `COc1cc(-c2cccc3c2C[C@H](NC(=O)c2ccc(OCC(F)(F)F)nc2)CO3)c(OC)nn1` [Example 98, N-[(3S)-5-(3,6-dimethoxypyridazin-4-yl)-3,4-dihydro-2H-chromen-3-yl]-6-(2,2,2-trifluoroethoxy)nicotinamide], inhibition was half-maximal at 6310 nM (IC50).

As to `Cc1cncc(-c2cccc3c2C[C@H](NC(=O)c2ccc(OCC(F)(F)F)nc2)CO3)n1` [Example 99, N-[(3S)-5-(6-methylpyrazin-2-yl)-3,4-dihydro-2H-chromen-3-yl]-6-(2,2,2-trifluoroethoxy)nicotinamide], the half-maximal inhibitory concentration (IC50) was 398 nM.

As to `COc1ncc(-c2cccc3c2C[C@H](NC(=O)c2ccc(OCCCF)nc2)CO3)cn1` [Example 100, 6-(3-fluoropropoxy)-N-[(3S)-5-(2-methoxypyrimidin-5-yl)-3,4-dihydro-2H-chromen-3-yl]nicotinamide], the half-maximal inhibitory concentration (IC50) was 398 nM.

`Cc1ncc(-c2cccc3c2C[C@H](NC(=O)c2ccc(OCCCF)nc2)CO3)cn1` [Example 101, 6-(3-fluoropropoxy)-N-[(3S)-5-(2-methylpyrimidin-5-yl)-3,4-dihydro-2H-chromen-3-yl]nicotinamide] showed an IC50 of 158 nM.

Consider `Cc1ncc(-c2cccc3c2C[C@H](NC(=O)c2ccc(OCC(F)(F)F)nc2)CO3)cn1` [Example 102, N-[(3S)-5-(2-methylpyrimidin-5-yl)-3,4-dihydro-2H-chromen-3-yl]-6-(2,2,2-trifluoroethoxy)nicotinamide], for which the IC50 was 100 nM.

On to `Cc1ncc(-c2cccc3c2C[C@H](NC(=O)c2ccnc(OC(C)C)c2)CO3)cn1` [Example 104, 2-isopropoxy-N-[(3S)-5-(2-methylpyrimidin-5-yl)-3,4-dihydro-2H-chromen-3-yl]isonicotinamide], for which the IC50 was 2510 nM.

Compound `Cc1ncc(-c2cccc3c2C[C@H](NC(=O)c2ccc(OC4CCC4)nc2)CO3)cn1` [Example 105, 6-(cyclobutyloxy)-N-[(3S)-5-(2-methylpyrimidin-5-yl)-3,4-dihydro-2H-chromen-3-yl]nicotinamide] had an IC50 of 63.1 nM.

`COc1ncc(-c2cccc3c2C[C@H](NC(=O)c2ccc(OC4CCC4)nc2)CO3)cn1` [Example 106, 6-(cyclobutyloxy)-N-[(3S)-5-(2-methoxypyrimidin-5-yl)-3,4-dihydro-2H-chromen-3-yl]nicotinamide] showed an IC50 of 251 nM.

For `COc1ncc(-c2cccc3c2C[C@H](NC(=O)c2ccnc(OC(C)C)c2)CO3)cn1` [Example 107, 2-isopropoxy-N-[(3S)-5-(2-methoxypyrimidin-5-yl)-3,4-dihydro-2H-chromen-3-yl]isonicotinamide], the IC50 was 3980 nM.

Consider `Cc1cnc(-c2cccc3c2C[C@H](NC(=O)c2ccc(OCCCF)nc2)CO3)c(C)n1` [Example 108, N-[(3S)-5-(3,5-dimethylpyrazin-2-yl)-3,4-dihydro-2H-chromen-3-yl]-6-(3-fluoropropoxy)nicotinamide], for which the IC50 was 3980 nM.
